# Test results: US8716303B2, “N-(hetero)aryl-pyrrolidine derivatives of pyrazol-4-yl-pyrrolo[2,3-d]pyrimidines and pyrrol-3-yl-pyrrolo[2,3-d]pyrimidines as janus kinase inhibitors” (Incyte Corporation, priority 2009, dated 2014)
# Assays:
# [1] = molecular target: T1, human JAK1 (a.a. 837-1142) (Homo sapiens, UniProt P23458); experiment: In vitro JAK kinase assay (HTRF, phosphorylation of a biotinylated peptide), JAK1; format: biochemical
# T1 construct: human JAK1 (a.a. 837-1142); His tag (N); made in house; host or cells: insect cells (baculovirus)
# T1 sequence (P23458 849-1154): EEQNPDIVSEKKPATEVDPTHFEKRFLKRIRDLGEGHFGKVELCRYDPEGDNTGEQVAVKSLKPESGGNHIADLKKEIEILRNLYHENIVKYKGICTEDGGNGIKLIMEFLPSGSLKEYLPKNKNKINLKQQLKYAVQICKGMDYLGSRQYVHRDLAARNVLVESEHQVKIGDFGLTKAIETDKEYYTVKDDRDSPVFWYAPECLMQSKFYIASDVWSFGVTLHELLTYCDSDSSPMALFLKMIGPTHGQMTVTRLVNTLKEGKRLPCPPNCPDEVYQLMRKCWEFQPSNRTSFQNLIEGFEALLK
# Experimental: (§1) Compounds herein were tested for inhibitory activity of JAK targets according to the following in vitro assay described in Park et al., Analytical Biochemistry 1999, 269, 94-104. The catalytic domains of human JAK1 (a.a. 837-1142), Jak2 (a.a. 828-1132) and Jak3 (a.a. 781-1124) with an N-terminal His tag were expressed using baculovirus in insect cells and purified. The catalytic activity of JAK1, JAK2 or JAK3 was assayed by measuring the phosphorylation of a biotinylated peptide. The phosphorylated peptide was detected by homogenous time resolved fluorescence (HTRF). IC50s of compounds were measured for each kinase in the 40 microL reactions that contain the enzyme, ATP and 500 nM peptide in 50 mM Tris (pH 7.8) buffer with 100 mM NaCl, 5 mM DTT, and 0.1 mg/mL (0.01%) BSA. The ATP concentration in the reactions was 90 μM for Jak1, 30 μM for Jak2 and 3 μM for Jak3 for Km conditions. For the 1 mM IC50 measurements, ATP concentration in the reactions was 1 mM. Reactions were carried out at RT for 1 h and then stopped with 20 μL 45 mM EDTA, 300 nM SA-APC, 6 nM Eu-Py20 in assay buffer (Perkin Elmer, Boston, Mass.). Binding to the Europium labeled antibody took place for 40 min and HTRF signal was measured on a Fusion plate reader (Perkin Elmer, Boston, Mass.).
# (§2) Compounds herein were tested for inhibitory activity of JAK1 and JAK2 targets according to the assay of Example A (experiments run at Km or 1 mM as indicated). The symbol “+” indicates an IC50<50 nM; the symbol “++” indicates an IC50≧50 and ≦100 nM; and the symbol “+++” indicates an IC50>100 and ≦500 nM.
# Jak2 (a.a. 828-1132) = molecular target: T2, Jak2 (a.a. 828-1132) (Homo sapiens, UniProt O60674); experiment: In vitro JAK kinase assay (HTRF, phosphorylation of a biotinylated peptide), JAK2, reported as JAK2/JAK1 ratio; format: biochemical
# T2 construct: Jak2 (a.a. 828-1132); His tag (N); made in house; host or cells: insect cells (baculovirus)
# T2 sequence (O60674 828-1132): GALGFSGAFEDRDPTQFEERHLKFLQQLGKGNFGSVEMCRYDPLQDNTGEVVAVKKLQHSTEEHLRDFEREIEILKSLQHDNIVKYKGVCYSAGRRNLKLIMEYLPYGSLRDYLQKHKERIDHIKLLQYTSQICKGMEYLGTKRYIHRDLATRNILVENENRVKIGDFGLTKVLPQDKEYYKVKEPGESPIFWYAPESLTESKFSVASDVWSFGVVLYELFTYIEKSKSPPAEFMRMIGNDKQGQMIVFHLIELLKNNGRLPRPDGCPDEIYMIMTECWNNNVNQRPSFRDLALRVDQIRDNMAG
# Experimental: as §1, §2
# [2] = Assay Conditions Km (ATP 90 μM for Jak1)
# [3] = Assay Conditions Km (ATP 90 μM for Jak1, 30 μM for Jak2)
"IC50 [1, 2] [nM]",JAK2/JAK1 IC50 ratio (Jak2 (a.a. 828-1132); [3]),IC50 ([1]; Assay Conditions 1 mM ATP) [nM],JAK2/JAK1 IC50 ratio (Jak2 (a.a. 828-1132); Assay Conditions 1 mM ATP),SMILES
< 50,3.7,,,"N#CCC(C1CCN(c2nc3cccnc3o2)C1)n1ccc(-c2ncnc3[nH]ccc23)c1 (single isomer, unassigned) [32, Step 2a, enantiomer 1]"
< 50,5.7,,,"N#CCC(C1CCN(c2nc3cccnc3o2)C1)n1ccc(-c2ncnc3[nH]ccc23)c1 (single isomer, unassigned) [32, Step 2a, enantiomer 2]"
50 to 100,0.2,,,"N#CCC(C1CCN(c2nc3cccnc3o2)C1)n1ccc(-c2ncnc3[nH]ccc23)c1 (single isomer, unassigned) [32, Step 2b (racemate)]"
,,< 50,5.6,"N#CCC(C1CCN(c2ccc3c(n2)S(=O)(=O)CC3)C1)n1ccc(-c2ncnc3[nH]ccc23)c1 (single isomer, unassigned) [34, enantiomer 1]"
,,< 50,13.8,"N#CCC(C1CCN(c2ccc3c(n2)S(=O)(=O)CC3)C1)n1ccc(-c2ncnc3[nH]ccc23)c1 (single isomer, unassigned) [34, enantiomer 2]"
,,< 50,40.0,"N#CCC(C1CCN(c2scc(C#N)c2C#N)C1)n1ccc(-c2ncnc3[nH]ccc23)c1 (single isomer, unassigned) [81 enantiomer 1]"
,,< 50,8.1,"N#CCC(C1CCN(c2scc(C#N)c2C#N)C1)n1ccc(-c2ncnc3[nH]ccc23)c1 (single isomer, unassigned) [81 enantiomer 2]"
< 50,8.8,,,"N#CCC(C1CCN(c2nccc(Cl)n2)C1)n1cc(-c2ncnc3[nH]ccc23)cn1 (single isomer, unassigned) [Example 4a, 3-[1-(4-chloropyrimidin-2-yl)pyrrolidin-3-yl]-3-[4-(7H-pyrrolo[2,3-d]pyrimidin-4-yl)-1H-pyrazol-1-yl]propanenitrile]"
< 50,3.7,,,"N#CCC(C1CCN(c2nccc(Cl)n2)C1)n1cc(-c2ncnc3[nH]ccc23)cn1 (single isomer, unassigned) [Example 4b, 3-[1-(4-chloropyrimidin-2-yl)pyrrolidin-3-yl]-3-[4-(7H-pyrrolo[2,3-d]pyrimidin-4-yl)-1H-pyrazol-1-yl]propanenitrile]"
< 50,1.9,,,"N#CCC(C1CCN(c2nc3cc(Cl)ccc3o2)C1)n1cc(-c2ncnc3[nH]ccc23)cn1 (single isomer, unassigned) [Example 10, 3-[1-(5-chloro-1,3-benzoxazol-2-yl)pyrrolidin-3-yl]-3-[4-(7H-pyrrolo[2,3-d]pyrimidin-4-yl)-1H-pyrazol-1-yl]propanenitrile]"
< 50,2.9,,,"N#CCC(C1CCN(c2nc3cnccc3o2)C1)n1cc(-c2ncnc3[nH]ccc23)cn1 (single isomer, unassigned) [Example 11, 3-(1-[1,3]oxazolo[4,5-c]pyridin-2-ylpyrrolidin-3-yl)-3-[4-(7H-pyrrolo[2,3-d]pyrimidin-4-yl)-1H-pyrazol-1-yl]propanenitrile]"
< 50,2.4,,,"N#CCC(C1CCN(c2nc3ncccc3o2)C1)n1cc(-c2ncnc3[nH]ccc23)cn1 (single isomer, unassigned) [Example 12, 3-(1-[1,3]oxazolo[4,5-b]pyridin-2-ylpyrrolidin-3-yl)-3-[4-(7H-pyrrolo[2,3-d]pyrimidin-4-yl)-1H-pyrazol-1-yl]propanenitrile]"
< 50,12,,,"N#CCC(C1CCN(c2nc3cccnc3o2)C1)n1cc(-c2ncnc3[nH]ccc23)cn1 (single isomer, unassigned) [Example 13a, 3-(1-[1,3]oxazolo[5,4-b]pyridin-2-ylpyrrolidin-3-yl)-3-[4-(7H-pyrrolo[2,3-d]pyrimidin-4-yl)-1H-pyrazol-1-yl]propanenitrile]"
< 50,2.1,,,"N#CCC(C1CCN(c2nc3cccnc3o2)C1)n1cc(-c2ncnc3[nH]ccc23)cn1 (single isomer, unassigned) [Example 13b, 3-(1-[1,3]oxazolo[5,4-b]pyridin-2-ylpyrrolidin-3-yl)-3-[4-(7H-pyrrolo[2,3-d]pyrimidin-4-yl)-1H-pyrazol-1-yl]propanenitrile]"
< 50,4,,,"Cc1cnc2oc(N3CCC(C(CC#N)n4cc(-c5ncnc6[nH]ccc56)cn4)C3)nc2c1 (single isomer, unassigned) [Example 14, 3-[1-(6-methyl[1,3]oxazolo[5,4-b]pyridin-2-yl)pyrrolidin-3-yl]-3-[4-(7H-pyrrolo[2,3-d]pyrimidin-4-yl)-1H-pyrazol-1-yl]propanenitrile]"
< 50,6.8,,,"N#CCC(C1CCN(c2nc3cc(F)cnc3o2)C1)n1cc(-c2ncnc3[nH]ccc23)cn1 (single isomer, unassigned) [Example 15, 3-[1-(6-fluoro[1,3]oxazolo[5,4-b]pyridin-2-yl)pyrrolidin-3-yl]-3-[4-(7H-pyrrolo[2,3-d]pyrimidin-4-yl)-1H-pyrazol-1-yl]propanenitrile]"
,,< 50,11.4,"N#CCC(C1CCN(c2ncc3cc[nH]c3n2)C1)n1cc(-c2ncnc3[nH]ccc23)cn1 (single isomer, unassigned) [Example 16, 3-[4-(7H-pyrrolo[2,3-d]pyrimidin-4-yl)-1H-pyrazol-1-yl]-3-[1-(7H-pyrrolo[2,3-d]pyrimidin-2-yl)pyrrolidin-3-yl]propanenitrile]"
,,100 to 500,8,"Cn1ccc2cnc(N3CCC(C(CC#N)n4cc(-c5ncnc6[nH]ccc56)cn4)C3)nc21 (single isomer, unassigned) [Example 17, 3-[1-(7-methyl-7H-pyrrolo[2,3-d]pyrimidin-2-yl)pyrrolidin-3-yl]-3-[4-(7H-pyrrolo[2,3-d]pyrimidin-4-yl)-1H-pyrazol-1-yl]propanenitrile]"
,,50 to 100,10.3,"N#CCC(C1CCN(c2nc3cncnc3o2)C1)n1cc(-c2ncnc3[nH]ccc23)cn1 (single isomer, unassigned) [Example 18, 3-(1-[1,3]oxazolo[5,4-d]pyrimidin-2-ylpyrrolidin-3-yl)-3-[4-(7H-pyrrolo[2,3-d]pyrimidin-4-yl)-1H-pyrazol-1-yl]propanenitrile]"
,,< 50,5.3,"N#CCC(C1CCN(c2nc3cc(F)ccc3o2)C1)n1cc(-c2ncnc3[nH]ccc23)cn1 (single isomer, unassigned) [Example 19, 3-[1-(5-fluoro-1,3-benzoxazol-2-yl)pyrrolidin-3-yl]-3-[4-(7H-pyrrolo[2,3-d]pyrimidin-4-yl)-1H-pyrazol-1-yl]propanenitrile]"
,,< 50,10.4,"N#CCC(C1CCN(c2nc3c(F)cccc3o2)C1)n1cc(-c2ncnc3[nH]ccc23)cn1 (single isomer, unassigned) [Example 20, 3-[1-(4-fluoro-1,3-benzoxazol-2-yl)pyrrolidin-3-yl]-3-[4-(7H-pyrrolo[2,3-d]pyrimidin-4-yl)-1H-pyrazol-1-yl]propanenitrile]"
,,< 50,31.8,"N#CCC(C1CCN(c2nc3cccc(F)c3o2)C1)n1cc(-c2ncnc3[nH]ccc23)cn1 (single isomer, unassigned) [Example 21, 3-[1-(7-fluoro-1,3-benzoxazol-2-yl)pyrrolidin-3-yl]-3-[4-(7H-pyrrolo[2,3-d]pyrimidin-4-yl)-1H-pyrazol-1-yl]propanenitrile]"
,,< 50,>7,"N#CCC(C1CCN(c2nc3cc(F)cc(F)c3o2)C1)n1cc(-c2ncnc3[nH]ccc23)cn1 (single isomer, unassigned) [Example 22, 3-[1-(5,7-difluoro-1,3-benzoxazol-2-yl)pyrrolidin-3-yl]-3-[4-(7H-pyrrolo[2,3-d]pyrimidin-4-yl)-1H-pyrazol-1-yl]propanenitrile]"
,,< 50,2.3,"CSc1nccc(N2CCC(C(CC#N)n3cc(-c4ncnc5[nH]ccc45)cn3)C2)n1 (single isomer, unassigned) [Example 23, 3-{1-[2-(methylthio)pyrimidin-4-yl]pyrrolidin-3-yl}-3-[4-(7H-pyrrolo[2,3-d]pyrimidin-4-yl)-1H-pyrazol-1-yl]propanenitrile]"
,,< 50,2.5,"C[S+]([O-])c1nccc(N2CCC(C(CC#N)n3cc(-c4ncnc5[nH]ccc45)cn3)C2)n1 (single isomer, unassigned) [Example 24, 3-{1-[2-(methylsulfinyl)pyrimidin-4-yl]pyrrolidin-3-yl}-3-[4-(7H-pyrrolo[2,3-d]pyrimidin-4-yl)-1H-pyrazol-1-yl]propanenitrile]"
